Measured values reported in PubChem BioAssay AID2060898 (Molecular Pharmacology Branch, DTP, NCI, 2025).

System: 616215-338-R-J1-PDC complex spheroid viability
Experiment: Anticancer human tumor 616215-338-R-J1-PDC patient-derived colon adenocarcinoma cell line growth inhibition [RAS]
Conditions: for IC50: curve of first compound; for viability, T/C: stronger effect = lower value
Summary of the method: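 Tumour cells grown as complex spheroids with HUVEC endothelial cells and mesenchymal stem cells, treated with RAS pathway inhibitor combinations. Each agent spans half-log steps from near clinical Cmax, or 10 microM where Cmax is unknown.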

[1] = second compound 0.00316 µM, first compound 0.0316 µM
[2] = second compound 0.00316 µM, first compound 0.1 µM
[3] = second compound 0.00316 µM, first compound 0.316 µM
[4] = second compound 0.00316 µM, first compound 1 µM
[5] = second compound 0.00316 µM, first compound 3.16 µM
[6] = second compound 0.00316 µM, first compound 10 µM
[7] = second compound 0.01 µM, first compound 0.0316 µM
[8] = second compound 0.01 µM, first compound 0.1 µM
[9] = second compound 0.01 µM, first compound 0.316 µM
[10] = second compound 0.01 µM, first compound 1 µM
[11] = second compound 0.01 µM, first compound 3.16 µM
[12] = second compound 0.01 µM, first compound 10 µM
[13] = second compound 0.0316 µM, first compound 0.0316 µM
[14] = second compound 0.0316 µM, first compound 0.1 µM
[15] = second compound 0.0316 µM, first compound 0.316 µM
[16] = second compound 0.0316 µM, first compound 1 µM
[17] = second compound 0.0316 µM, first compound 3.16 µM
[18] = second compound 0.0316 µM, first compound 10 µM
[19] = second compound 0.1 µM, first compound 0.0316 µM
[20] = second compound 0.1 µM, first compound 0.1 µM
[21] = second compound 0.1 µM, first compound 0.316 µM
[22] = second compound 0.1 µM, first compound 1 µM
[23] = second compound 0.1 µM, first compound 3.16 µM
[24] = second compound 0.1 µM, first compound 10 µM
[25] = second compound 0.316 µM, first compound 0.0316 µM
[26] = second compound 0.316 µM, first compound 0.1 µM
[27] = second compound 0.316 µM, first compound 0.316 µM
[28] = second compound 0.316 µM, first compound 1 µM
[29] = second compound 0.316 µM, first compound 3.16 µM
[30] = second compound 0.316 µM, first compound 10 µM
[31] = second compound 1 µM, first compound 0.0316 µM
[32] = second compound 1 µM, first compound 0.1 µM
[33] = second compound 1 µM, first compound 0.316 µM
[34] = second compound 1 µM, first compound 1 µM
[35] = second compound 1 µM, first compound 3.16 µM
[36] = second compound 1 µM, first compound 10 µM
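Also: spheroids exposed to agents for seven days before viability readout.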
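For viability, T/C in this document: 100% = DMSO vehicle control viability.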

CC(Nc1ccc2c(c1)OCCn1cc(N3C(=O)OCC3C(F)F)nc1-2)C(N)=O (stereo unspecified) + C=CC(=O)N1CCN(c2nc(OCC3CCCN3C)nc3c(F)c(-c4nc(N)cc(C)c4C(F)(F)F)c(Cl)cc23)C(C)C1
IC50 (second compound 0.00316 µM): > 10 µM | IC50 (second compound 0.01 µM): > 10 µM | IC50 (second compound 0.0316 µM): > 10 µM | IC50 (second compound 0.1 µM): > 10 µM | IC50 (second compound 0.316 µM): > 10 µM | IC50 (second compound 1 µM): > 10 µM | viability, T/C [1]: 106% | viability, T/C [2]: 122% | viability, T/C [3]: 109% | viability, T/C [4]: 101% | viability, T/C [5]: 100% | viability, T/C [6]: 82.2% | viability, T/C [7]: 106% | viability, T/C [8]: 115% | viability, T/C [9]: 110% | viability, T/C [10]: 111% | viability, T/C [11]: 105% | viability, T/C [12]: 85.9% | viability, T/C [13]: 110% | viability, T/C [14]: 114% | viability, T/C [15]: 119% | viability, T/C [16]: 115% | viability, T/C [17]: 93.3% | viability, T/C [18]: 80.1% | viability, T/C [19]: 111% | viability, T/C [20]: 108% | viability, T/C [21]: 107% | viability, T/C [22]: 131% | viability, T/C [23]: 101% | viability, T/C [24]: 77.9% | viability, T/C [25]: 109% | viability, T/C [26]: 103% | viability, T/C [27]: 111% | viability, T/C [28]: 109% | viability, T/C [29]: 103% | viability, T/C [30]: 86.2% | viability, T/C [31]: 106% | viability, T/C [32]: 107% | viability, T/C [33]: 109% | viability, T/C [34]: 119% | viability, T/C [35]: 98% | viability, T/C [36]: 73.4%

C[C@@H](NC(=O)c1ncnc(N)c1Cl)c1ncc(C(=O)Nc2cc(C(F)(F)F)c(Cl)cn2)s1 + C=CC(=O)N1CCN(c2nc(OCC3CCCN3C)nc3c(F)c(-c4nc(N)cc(C)c4C(F)(F)F)c(Cl)cc23)C(C)C1
IC50 (second compound 0.00316 µM): > 10 µM | IC50 (second compound 0.01 µM): > 10 µM | IC50 (second compound 0.0316 µM): > 10 µM | IC50 (second compound 0.1 µM): 9.75 µM | IC50 (second compound 0.316 µM): > 10 µM | IC50 (second compound 1 µM): > 10 µM | viability, T/C [1]: 109% | viability, T/C [2]: 111% | viability, T/C [3]: 120% | viability, T/C [4]: 140% | viability, T/C [5]: 118% | viability, T/C [6]: 53.5% | viability, T/C [7]: 106% | viability, T/C [8]: 114% | viability, T/C [9]: 121% | viability, T/C [10]: 120% | viability, T/C [11]: 97.1% | viability, T/C [12]: 59.9% | viability, T/C [13]: 102% | viability, T/C [14]: 112% | viability, T/C [15]: 114% | viability, T/C [16]: 119% | viability, T/C [17]: 122% | viability, T/C [18]: 59.5% | viability, T/C [19]: 118% | viability, T/C [20]: 103% | viability, T/C [21]: 113% | viability, T/C [22]: 114% | viability, T/C [23]: 107% | viability, T/C [24]: 48.6% | viability, T/C [25]: 114% | viability, T/C [26]: 104% | viability, T/C [27]: 113% | viability, T/C [28]: 117% | viability, T/C [29]: 116% | viability, T/C [30]: 65% | viability, T/C [31]: 112% | viability, T/C [32]: 98.6% | viability, T/C [33]: 111% | viability, T/C [34]: 131% | viability, T/C [35]: 112% | viability, T/C [36]: 61.2%

O=C(c1ccc(F)c(F)c1Nc1ccc(I)cc1F)N1CC(O)([C@@H]2CCCCN2)C1 + C=CC(=O)N1CCN(c2nc(OCC3CCCN3C)nc3c(F)c(-c4nc(N)cc(C)c4C(F)(F)F)c(Cl)cc23)C(C)C1
IC50 (second compound 0.00316 µM): 0.0621 µM | IC50 (second compound 0.01 µM): 0.0707 µM | IC50 (second compound 0.0316 µM): 0.0721 µM | IC50 (second compound 0.1 µM): 0.0894 µM | IC50 (second compound 0.316 µM): 0.0674 µM | IC50 (second compound 1 µM): 0.0613 µM | viability, T/C (second compound 0.00316 µM, first compound 0.00316 µM): 114% | viability, T/C (second compound 0.00316 µM, first compound 0.01 µM): 112% | viability, T/C [1]: 65.3% | viability, T/C [2]: 38.6% | viability, T/C [3]: 12.9% | viability, T/C [4]: 4.36% | viability, T/C (second compound 0.01 µM, first compound 0.00316 µM): 98.8% | viability, T/C (second compound 0.01 µM, first compound 0.01 µM): 108% | viability, T/C [7]: 81.7% | viability, T/C [8]: 36% | viability, T/C [9]: 13.1% | viability, T/C [10]: 6.62% | viability, T/C (second compound 0.0316 µM, first compound 0.00316 µM): 110% | viability, T/C (second compound 0.0316 µM, first compound 0.01 µM): 115% | viability, T/C [13]: 74.7% | viability, T/C [14]: 40% | viability, T/C [15]: 15% | viability, T/C [16]: 3.89% | viability, T/C (second compound 0.1 µM, first compound 0.00316 µM): 106% | viability, T/C (second compound 0.1 µM, first compound 0.01 µM): 116% | viability, T/C [19]: 82.5% | viability, T/C [20]: 47.5% | viability, T/C [21]: 16.7% | viability, T/C [22]: 6.51% | viability, T/C (second compound 0.316 µM, first compound 0.00316 µM): 100% | viability, T/C (second compound 0.316 µM, first compound 0.01 µM): 105% | viability, T/C [25]: 80.6% | viability, T/C [26]: 33.1% | viability, T/C [27]: 13.9% | viability, T/C [28]: 4.52% | viability, T/C (second compound 1 µM, first compound 0.00316 µM): 102% | viability, T/C (second compound 1 µM, first compound 0.01 µM): 101% | viability, T/C [31]: 72.2% | viability, T/C [32]: 31.7% | viability, T/C [33]: 18.8% | viability, T/C [34]: 5.31%
